Values quoted from earlier work, collected in paper PMC11336009 (GeroScience, 2024).

What was measured:
Settings in all cases: cited from earlier work
[1] = test system: diabetic mice after ischemic stroke; parameters: method as in PMID 24821550
rat rotenone model of PD = test system: rat rotenone model of PD
[2] = test system: rat 3-nitropropionic acid (3NP) model; parameters: method as in PMID 31728850

Compound: CC#CCn1c(N2CCC[C@@H](N)C2)nc2c1c(=O)n(Cc1nc(C)c3ccccc3n1)c(=O)n2C [linagliptin]
- Neural stem cell proliferation after ischemic stroke [1]: augment neural stem cell proliferation

Compound: liraglutide (HAEGTFTSDVSSYLEGQAAKEFIAWLVRGRG; chains of the INN, looked up) [GLP-1R agonist]
- Effects in rat rotenone model of PD (rat rotenone model of PD): mitigated motor deficits, striatal DA loss, SNc dopaminergic neuronal degeneration and neuroinflammation

Compound: N#C[C@@H]1C[C@@H]2C[C@@H]2N1C(=O)[C@@H](N)C12CC3CC(CC(O)(C3)C1)C2 [saxagliptin]
- Effects in rat rotenone PD model (rat rotenone model of PD): preserve TH levels within the SNc and mitigate striatal declines in DA and TH levels

Compound: N#C[C@@H]1CCCN1C(=O)CNC12CC3CC(CC(O)(C3)C1)C2 [Vildagliptin]
- Effects in striatum of rat 3NP model of late-stage Huntington's disease [2]: reduce neuronal degeneration and markers of oxidative stress
- Effects in rat rotenone PD model (rat rotenone model of PD): mitigate striatal DA loss, neuroinflammation and motor deficits

Compound: Cn1c(=O)cc(N2CCC[C@@H](N)C2)n(Cc2ccccc2C#N)c1=O [alogliptin]
- Effects in rotenone challenged PD rats (rat rotenone model of PD; same effects as described for saxagliptin): do the same
